Source: patent US20100311694A1, “Set of Geldanamycin Derivatives and Their Preparation Methods” (Institute of Medicinal Biotechnology, Chinese Academy of …, priority 2008, published 2010)

What was measured:
[1] = system: HIV-1; assay: Anti HIV-1 activity (HIV-1 P24 antigen in cell cultures); assay type: cell-based; conditions: 4 days after addition of the reagents
Protocol: Test Procedure of Anti HIV-1 Activity
8 reagent solutions of different diluted concentrations and positive control solutions are added into cell cultures in 96 well plate respectively. The sample of each diluted solutions is made duplicately and a control cell sample is also is set up. 100 μl of cell sample at a concentration of 2×10^5cells/ml is inoculated into the wells containing reagent in the plate. The cells samples are cultured in a saturated humidity culture chamber (at a 5% CO2 atmosphere) at 37° C. The pathological changes of cells are observed daily.

[2] = system: HBV; assay: Anti-HBV activity (HBV DNA in cell lysate, spot hybridization); assay type: cell-based; conditions: HBV DNA content of the cells, reagent solution changed every 4 days
Protocol: Test Procedure for Anti-HBV Activity
Using cell culture method, the preparation of the cells to be tested (100,000 cell's/mL) is inoculated into cell culture plate in 100 μl each well and the cells are cultured 24 h at 37° C. in 5% CO2. Tests are carried out when the cells grow into a monolayer. The target compounds as well as the controls are prepared into a series of solutions of appropriate concentrations using the culture medium and are added into 96 well culture plate respectively in 4 wells per one concentration. Then the reagent solution in each well is changed into the fresh reagent solution with the same concentration every 4 days. A cell control without reagent treatment is simultaneously is set up. The observation index is based upon the pathological changes of the cells by observing the degrees of the pathological changes of the cells under microscope every 8 days. […] Cell control without drug treatment is simultaneously is set up. The reagent solution or control medium in each well is changed into the fresh reagent solution or fresh medium respectively every 4 days. After cytolysis of the cells, HBV DNA is extracted from the cell lysis solution according to the molecular cloning technical procedure. The spots of different samples are hybridized and the A values of different hybridized spots are measured using autoradiograghic technique. The HBV DNA contents in the cell control as well as in the drug treated samples are calculated using the regression equations obtained from the standard curves to obtain half effective concentration values, the results are shown in Table 1.

COC1C=CC=C(C)C(=O)NC2=CC(=O)C(NC3CC(C)(C)N(C)C(C)(C)C3)=C(CC(C)CC(OC)C(O)C(C)C=C(C)C1OC(N)=O)C2=O (stereo not shown) [GM-W69]
Activity of HIV inhibition IC50 [1]: 22.23 µg/mL
Activity of HBV inhibition IC50 [2]: 10.8 µg/mL

COC1C=CC=C(C)C(=O)NC2=CC(=O)C(NC3CCc4ccccc43)=C(CC(C)CC(OC)C(O)C(C)C=C(C)C1OC(N)=O)C2=O (stereo not shown) [GM-W21]
Activity of HIV inhibition IC50 [1]: 58.97 µg/mL
Activity of HBV inhibition IC50 [2]: 10.4 µg/mL

17-(4′-((5″-(4′″-amino-2′″-oxopyrimidine-1′″-(2H)-yl)-3″,4″-dihydroxyl-tetrahydrofuran-2″yl)methoxyl)-4′-oxobutylamino)-17-de methoxy geldanamycin [GM-CY]
Activity of HIV inhibition IC50 [1]: 0.02 µg/mL
Activity of HBV inhibition IC50 [2]: 0.032 µg/mL

COC1C=CC=C(C)C(=O)NC2=CC(=O)C(NCCCN(C)c3ccccc3)=C(CC(C)CC(OC)C(O)C(C)C=C(C)C1OC(N)=O)C2=O (stereo not shown) [GM-W45]
Activity of HIV inhibition IC50 [1]: <1.67 µg/mL
Activity of HBV inhibition IC50 [2]: 0.32 µg/mL

COc1cccc(CCNC2=C3CC(C)CC(OC)C(O)C(C)C=C(C)C(OC(N)=O)C(OC)C=CC=C(C)C(=O)NC(=CC2=O)C3=O)c1 (stereo not shown) [GM-W87]
Activity of HIV inhibition IC50 [1]: 0.39 µg/mL
Activity of HBV inhibition IC50 [2]: 0.064 µg/mL

COC1C=CC=C(C)C(=O)NC2=CC(=O)C(NCC(=N)N)=C(CC(C)CC(OC)C(O)C(C)C=C(C)C1OC(N)=O)C2=O (stereo not shown) [GM-W24]
Activity of HIV inhibition IC50 [1]: 0.11 µg/mL
Activity of HBV inhibition IC50 [2]: 0.01 µg/mL

COC1C=CC=C(C)C(=O)NC2=CC(=O)C(NN3CCCCC3)=C(CC(C)CC(OC)C(O)C(C)C=C(C)C1OC(N)=O)C2=O (stereo not shown) [GM-W72]
Activity of HIV inhibition IC50 [1]: 6.45 µg/mL
Activity of HBV inhibition IC50 [2]: 3.2 µg/mL

COC1C=CC=C(C)C(=O)NC2=CC(=O)C(NCCS(=O)(=O)O)=C(CC(C)CC(OC)C(O)C(C)C=C(C)C1OC(N)=O)C2=O (stereo not shown) [GM-W5]
Activity of HIV inhibition IC50 [1]: 10.26 µg/mL
Activity of HBV inhibition IC50 [2]: 6.4 µg/mL

COC1C=CC=C(C)C(=O)NC2=CC(=O)C(NCc3cc(O)co3)=C(CC(C)CC(OC)C(O)C(C)C=C(C)C1OC(N)=O)C2=O (stereo not shown) [GM-W53]
Activity of HIV inhibition IC50 [1]: 0.37 µg/mL
Activity of HBV inhibition IC50 [2]: 0.46 µg/mL

COC1C=CC=C(C)C(=O)NC2=CC(=O)C(NC(c3ccccc3)c3ccccc3)=C(CC(C)CC(OC)C(O)C(C)C=C(C)C1OC(N)=O)C2=O (stereo not shown) [GM-W44]
Activity of HIV inhibition IC50 [1]: >60 µg/mL
Activity of HBV inhibition IC50 [2]: >100 µg/mL

COC1C=CC=C(C)C(=O)NC2=CC(=O)C(NCc3ccccn3)=C(CC(C)CC(OC)C(O)C(C)C=C(C)C1OC(N)=O)C2=O (stereo not shown) [GM-W19]
Activity of HIV inhibition IC50 [1]: 28.90 µg/mL
Activity of HBV inhibition IC50 [2]: 3.4 µg/mL

COC1C=CC=C(C)C(=O)NC2=CC(=O)C(NCCCN3CCOCC3)=C(CC(C)CC(OC)C(O)C(C)C=C(C)C1OC(N)=O)C2=O (stereo not shown) [GM-W46]
Activity of HIV inhibition IC50 [1]: 1.32 µg/mL
Activity of HBV inhibition IC50 [2]: 1.49 µg/mL

COC1C=CC=C(C)C(=O)NC2=CC(=O)C(NC(CO)C(C)C)=C(CC(C)CC(OC)C(O)C(C)C=C(C)C1OC(N)=O)C2=O (stereo not shown) [GM-W58]
Activity of HIV inhibition IC50 [1]: 1.39 µg/mL
Activity of HBV inhibition IC50 [2]: 0.64 µg/mL

COC1C=CC=C(C)C(=O)NC2=CC(=O)C(NCC3CCNCC3)=C(CC(C)CC(OC)C(O)C(C)C=C(C)C1OC(N)=O)C2=O (stereo not shown) [GM-AMPP]
Activity of HIV inhibition IC50 [1]: 0.06 µg/mL
Activity of HBV inhibition IC50 [2]: 8.0 µg/mL

COC1C=CC=C(C)C(=O)NC2=CC(=O)C(NCCCN3CCOCC3)=C(CC(C)CC(OC)C(O)C(C)C=C(C)C1OC(N)=O)C2=O (stereo not shown) [GM-W75]
Activity of HIV inhibition IC50 [1]: 1.21 µg/mL
Activity of HBV inhibition IC50 [2]: 0.1 µg/mL

COC1C=CC=C(C)C(=O)NC2=CC(=O)C(NN3CCCCC3)=C(CC(C)CC(OC)C(O)C(C)C=C(C)C1OC(N)=O)C2=O (stereo not shown) [GM-W11]
Activity of HIV inhibition IC50 [1]: 3.87 µg/mL
Activity of HBV inhibition IC50 [2]: 8.0 µg/mL

C=CC(C)(CCC=C(C)CCC=C(C)CCC=C(C)C)OC(=O)CCCNC1=C2CC(C)CC(OC)C(O)C(C)C=C(C)C(OC(N)=O)C(OC)C=CC=C(C)C(=O)NC(=CC1=O)C2=O (stereo not shown) [GM-W84]
Activity of HIV inhibition IC50 [1]: 1.24 µg/mL
Activity of HBV inhibition IC50 [2]: 0.8 µg/mL

COC1C=CC=C(C)C(=O)NC2=CC(=O)C(NC(C)(CO)CO)=C(CC(C)CC(OC)C(O)C(C)C=C(C)C1OC(N)=O)C2=O (stereo not shown) [GM-W6]
Activity of HIV inhibition IC50 [1]: 1.47 µg/mL
Activity of HBV inhibition IC50 [2]: 1.32 µg/mL

COC1C=CC=C(C)C(=O)NC2=CC(=O)C(NN3CCN(CCO)CC3)=C(CC(C)CC(OC)C(O)C(C)C=C(C)C1OC(N)=O)C2=O (stereo not shown) [GM-W64]
Activity of HIV inhibition IC50 [1]: 3.75 µg/mL
Activity of HBV inhibition IC50 [2]: 8.6 µg/mL

COC1C=CC=C(C)C(=O)NC2=CC(=O)C(NCCC3OCCO3)=C(CC(C)CC(OC)C(O)C(C)C=C(C)C1OC(N)=O)C2=O (stereo not shown) [GM-W28]
Activity of HIV inhibition IC50 [1]: 0.21 µg/mL
Activity of HBV inhibition IC50 [2]: 0.10 µg/mL

COC1C=CC=C(C)C(=O)NC2=CC(=O)C(NC(C)(C)CO)=C(CC(C)CC(OC)C(O)C(C)C=C(C)C1OC(N)=O)C2=O (stereo not shown) [GM-W7]
Activity of HIV inhibition IC50 [1]: 9.89 µg/mL
Activity of HBV inhibition IC50 [2]: 8.0 µg/mL

CO[C@H]1/C=C/C=C(\C)C(=O)NC2=C(NC[C@H]3CCCO3)C(=O)C(NC[C@H]3CCCO3)=C(C[C@H](C)C[C@H](OC)[C@H](O)[C@@H](C)/C=C(\C)[C@H]1OC(N)=O)C2=O [THFM-II, 17,19-di-(R)-tetrahydrofurfuryl amino-17-demethoxy geldanamycin]
Activity of HIV inhibition IC50 [1]: >22.2 µg/mL
Activity of HBV inhibition IC50 [2]: 0.013 µg/mL

CO[C@H]1/C=C\C=C(/C)C(=O)NC2=CC(=O)C(NC[C@@H]3CCCO3)=C(C[C@@H](C)C[C@H](OC)[C@H](O)[C@@H](C)/C=C(\C)[C@@H]1OC(N)=O)C2=O [THFM(S)-GM, 2′S-17-tetrahydrofurfurylamino-17-demethoxy geldanamycin]
Activity of HIV inhibition IC50 [1]: 0.06 µg/mL
Activity of HBV inhibition IC50 [2]: 0.032 µg/mL

COC1C=CC=C(C)C(=O)NC2=CC(=O)C(NCCO)=C(CC(C)CC(OC)C(O)C(C)C=C(C)C1OC(N)=O)C2=O (stereo not shown) [GM-W42]
Activity of HIV inhibition IC50 [1]: 0.091 µg/mL
Activity of HBV inhibition IC50 [2]: 0.01 µg/mL

CCOC(=O)N1CCC(NC2=C3CC(C)CC(OC)C(O)C(C)C=C(C)C(OC(N)=O)C(OC)C=CC=C(C)C(=O)NC(=CC2=O)C3=O)CC1 (stereo not shown) [GM-W80]
Activity of HIV inhibition IC50 [1]: 0.97 µg/mL
Activity of HBV inhibition IC50 [2]: 1.1 µg/mL

COC1C=CC=C(C)C(=O)NC2=CC(=O)C(NCC(O)c3ccccc3)=C(CC(C)CC(OC)C(O)C(C)C=C(C)C1OC(N)=O)C2=O (stereo not shown) [GM-W36]
Activity of HIV inhibition IC50 [1]: 0.29 µg/mL
Activity of HBV inhibition IC50 [2]: 0.02 µg/mL

COC1C=CC=C(C)C(=O)NC2=CC(=O)C(NCCC3CC(CC(=O)OC(C)(C)C)OC(C)(C)O3)=C(CC(C)CC(OC)C(O)C(C)C=C(C)C1OC(N)=O)C2=O (stereo not shown) [GM-W79]
Activity of HIV inhibition IC50 [1]: 1.47 µg/mL
Activity of HBV inhibition IC50 [2]: 3.2 µg/mL

COC(CNC1=C2CC(C)CC(OC)C(O)C(C)C=C(C)C(OC(N)=O)C(OC)C=CC=C(C)C(=O)NC(=CC1=O)C2=O)OC (stereo not shown) [GM-W12]
Activity of HIV inhibition IC50 [1]: 0.46 µg/mL
Activity of HBV inhibition IC50 [2]: 3.2 µg/mL

COC1C=CC=C(C)C(=O)NC2=CC(=O)C(NCc3ccncc3)=C(CC(C)CC(OC)C(O)C(C)C=C(C)C1OC(N)=O)C2=O (stereo not shown) [GM-W1]
Activity of HIV inhibition IC50 [1]: 36.7 µg/mL
Activity of HBV inhibition IC50 [2]: 0.69 µg/mL

COC1C=CC=C(C)C(=O)NC2=CC(=O)C(NCCCn3ccnc3)=C(CC(C)CC(OC)C(O)C(C)C=C(C)C1OC(N)=O)C2=O (stereo not shown) [GM-129, 17-(3′-(1″-imidazolyl)propylamino)-17-demethoxy geldanamycin]
Activity of HIV inhibition IC50 [1]: 1.92 µg/mL
Activity of HBV inhibition IC50 [2]: 0.32 µg/mL

COC1C=CC=C(C)C(=O)NC2=C(NCC3CCCO3)C(=O)C(NCC3CCCO3)=C(CC(C)CC(OC)C(O)C(C)C=C(C)C1OC(N)=O)C2=O [THFM + 2, 17,19-di-(S)-tetrahydrofurfuryl amino-17-demethoxy geldanamycin]
Activity of HIV inhibition IC50 [1]: 0.18 µg/mL
Activity of HBV inhibition IC50 [2]: 0.10 µg/mL

COC1C=CC=C(C)C(=O)NC2=CC(=O)C(NCCN3CCCC3)=C(CC(C)CC(OC)C(O)C(C)C=C(C)C1OC(N)=O)C2=O (stereo not shown) [GM-W52]
Activity of HIV inhibition IC50 [1]: 0.65 µg/mL
Activity of HBV inhibition IC50 [2]: 0.32 µg/mL
